The record followed here is ChEMBL document CHEMBL4811216, “Chemotherapy for human schistosomiasis: how far have we come? What's new? Where do we go from here?” (RSC Med Chem, 2020).

Assay [1] relates to Schistosoma mansoni. Nature of the assay: Antischistosomal activity against Schistosoma mansoni BH assessed as reduction in motor activity at 25 uM measured after 24 hrs by light microscopy relative to control. Type of assay: functional. Further details: scale not given: the % may be the effect or the level left.
Assay [2] concerns Schistosoma mansoni. Put plainly: Antischistosomal activity against Schistosoma mansoni BH assessed as extensive tegumental alteration at 25 uM measured after 24 hrs by light microscopy relative to control. Type of assay: functional.
The target of assay [3] is T1, ATP-diphosphohydrolase 1 (Schistosoma mansoni) (UniProt Q7YTA4).
T1 sequence (whole entry): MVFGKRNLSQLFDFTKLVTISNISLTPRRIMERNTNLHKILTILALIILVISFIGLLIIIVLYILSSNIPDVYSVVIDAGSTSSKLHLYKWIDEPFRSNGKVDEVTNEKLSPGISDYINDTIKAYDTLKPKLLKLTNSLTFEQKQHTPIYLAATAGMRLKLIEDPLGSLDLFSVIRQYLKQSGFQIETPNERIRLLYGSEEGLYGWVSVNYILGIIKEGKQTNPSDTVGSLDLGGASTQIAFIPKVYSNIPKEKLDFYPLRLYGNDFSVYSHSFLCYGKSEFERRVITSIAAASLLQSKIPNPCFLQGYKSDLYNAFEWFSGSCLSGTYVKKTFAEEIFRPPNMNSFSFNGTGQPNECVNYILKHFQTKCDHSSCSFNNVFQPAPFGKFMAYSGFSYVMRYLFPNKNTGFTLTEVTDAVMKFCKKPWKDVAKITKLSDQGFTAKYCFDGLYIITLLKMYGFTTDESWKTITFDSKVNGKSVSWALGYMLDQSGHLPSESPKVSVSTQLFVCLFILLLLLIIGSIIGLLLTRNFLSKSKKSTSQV
Put plainly: Inhibition of Schistosoma mansoni ATPDase1 at 40 uM preincubated for 30 mins followed by addition of ATP/ADP by spectrophotometric method relative to control.

The target in assay [4] is T2, ATP-diphosphohydrolase 1 (Schistosoma mansoni, UniProt Q7YTA4).
T2 sequence (Q7YTA4 whole entry): T1 sequence (whole entry)
Nature of the assay: Inhibition of Schistosoma mansoni ATPDase1 preincubated for 30 mins followed by addition of ATP/ADP by spectrophotometric method.

The target in assay [5] is T3, Thioredoxin glutathione reductase (Schistosoma mansoni, UniProt Q962Y6).
T3 sequence (Q962Y6 whole entry): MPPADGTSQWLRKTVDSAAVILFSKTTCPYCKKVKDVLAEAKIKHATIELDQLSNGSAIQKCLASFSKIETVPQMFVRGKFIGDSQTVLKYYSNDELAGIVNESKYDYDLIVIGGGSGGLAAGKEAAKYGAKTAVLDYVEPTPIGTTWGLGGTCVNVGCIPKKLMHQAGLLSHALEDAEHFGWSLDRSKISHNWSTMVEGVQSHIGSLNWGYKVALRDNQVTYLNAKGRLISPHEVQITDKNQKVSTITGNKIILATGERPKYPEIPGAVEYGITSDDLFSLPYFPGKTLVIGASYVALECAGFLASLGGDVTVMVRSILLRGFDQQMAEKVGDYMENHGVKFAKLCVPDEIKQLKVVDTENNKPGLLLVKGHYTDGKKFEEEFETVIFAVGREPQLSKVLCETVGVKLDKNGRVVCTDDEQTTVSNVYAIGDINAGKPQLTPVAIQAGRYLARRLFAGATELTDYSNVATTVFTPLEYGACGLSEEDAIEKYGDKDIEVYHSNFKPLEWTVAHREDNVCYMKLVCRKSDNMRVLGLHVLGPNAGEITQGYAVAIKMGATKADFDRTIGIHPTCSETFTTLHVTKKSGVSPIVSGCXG
Put plainly: Inhibition of Schistosoma mansoni thioredoxin glutathione reductase incubated for 30 mins by DTNB assay.

For assay [6], the system named is Schistosoma mansoni. Put plainly: Antischistosomal activity against adult Schistosoma mansoni assessed as worm death at 12.5 uM incubated for 120 hrs relative to control. Type of assay: functional.
Assay [7] relates to Schistosoma mansoni. Put plainly: Antischistosomal activity against Schistosoma mansoni Schistosomula assessed as worm death at 12.5 uM incubated for 120 hrs relative to control. Type of assay: functional.
The subject of assay [8] is Schistosoma mansoni. Put plainly: Antischistosomal activity against juvenile Schistosoma mansoni assessed as worm death at 12.5 uM incubated for 120 hrs relative to control. Type of assay: functional.
For assay [9], the system named is Schistosoma japonicum. Put plainly: Antischistosomal activity against adult Schistosoma japonicum assessed as worm death at 12.5 uM incubated for 120 hrs relative to control. Type of assay: functional.

The inhibition is the percentage by which the read-out fell short of the control. In general, IC50 refers to the concentration that inhibits the measured activity by half. Regarding `COc1cc(O)cc(O)c1C(=O)/C=C/c1ccccc1` [CARDAMOMIN], the Activity in assay [1] and in [2] was 100% each time. In addition, the inhibition in [3] came to 82%. In [4], the IC50 was 23.5 µM.
Broadly, the mortality is the share of the test organisms that died. Take `CCOC(=O)C(C(=O)OCC)C1=C(Br)C2=NOC3c4ccccc4C(=O)C(=C1)C23` (centres undefined): in assay [5], the IC50 worked out at 0.14 µM. For the same compound, the mortality at 12.5 µM came out at 28% in assay [6], 96% in [7], 100% in assay [8] and 100% in [9].
